Experimental data published in patent US20050176655A1, “Novel macrolide derivatives havaing effect of potentiating antifungal activity” (priority 2002, published 2005).

Experiments:
Experiment in all cases: Paper disk method, enhancing action for activities of azole antifungal agents
Format in all cases: cell-based
[1] = tested on: Aspergillus niger ATCC 6275; details: 48 hours; for Inhibition activity (inhibition ring mm) A. niger ATCC 6275 GYF / Transparency of the inhibition ring A. niger ATCC 6275 GYF: fluconazole 10 μg/ml; for Inhibition activity (inhibition ring mm) A. niger ATCC 6275 GYM / Transparency of the inhibition ring A. niger ATCC 6275 GYM: miconazole 0.1 μg/ml; for Inhibition activity (inhibition ring mm) A. niger ATCC 6275 GY / Transparency of the inhibition ring A. niger ATCC 6275 GY: GY medium (control, no azole)
Protocol: (§1) Test organisms used were Candida albicans ATCC 64548, fluconazole resistant Candida albicans ATCC 64550 and Aspergillus niger ATCC 6275. Candida spp. were cultured in Waksman broth (glucose 2.0%, peptone 0.5%, dry yeast 0.3%, meat extract 0.5%, NaCl 0.5% and CaCO3 0.3%, pH 7.0) at 27° C. for 40 hours, then 0.1% thereof was inoculated on GY agar medium (glucose 1.0%, yeast extract 0.5% and agar 0.8%, pH 6.0). Spore suspension 0.2% of Aspergillus niger ATCC 6275 was inoculated on GY agar medium.
(§2) Azole antifungal agents used were miconazole (Sigma Inc., the U.S.) and fluconazole (ICN Pharmaceuticals, Inc., the U.S.), and were added at concentrations without affecting growth on each test organisms follows.
Aspergillus niger ATCC 6275: miconazole 0.1 μg/ml or fluconazole 10 μg/ml.
(§3) In the above medium, a medium added with miconazole to GY medium (control) is designated as GYM, and a medium added with fluconazole is designated as GYF. Activities were assessed by means of paper disk method (thickness: 8 mm, ADVANTEC MFS INC., Japan). Diameter of inhibition ring is expressed with mm unit after culturing Candida spp. for 24 hours and Aspergillus niger ATCC 6275 for 48 hours. Transparency of the inhibition ring is assessed with 5 degrees of A, B, C, D and E (transparence<A<B<C<D<E<opaque).

[2] = tested on: fluconazole resistant Candida albicans ATCC 64550; details: 24 hours; for Inhibition activity (inhibition ring mm) C. albicans ATCC 64550 GYF / Transparency of the inhibition ring C. albicans ATCC 64550 GYF: fluconazole 30 μg/ml; for Inhibition activity (inhibition ring mm) C. albicans ATCC 64550 GYM / Transparency of the inhibition ring C. albicans ATCC 64550 GYM: miconazole 0.15 μg/ml
Protocol: as §1, §2
Candida albicans ATCC 64550: miconazole 0.15 μg/ml or fluconazole 30 μg/ml.
as §3

[3] = tested on: Candida albicans ATCC 64548; details: 24 hours; for Inhibition activity (inhibition ring mm) C. albicans ATCC 64548 GYM / Transparency of the inhibition ring C. albicans ATCC 64548 GYM: miconazole 0.03 μg/ml
Protocol: as §1, §2
Candida albicans ATCC 64548: miconazole 0.03 μg/ml or fluconazole 0.5 μg/ml.
as §3

[4] = 100 μg/8 mm disk, GYF, fluconazole 0.5 μg/ml

CCC1OC1(C)C1OC(=O)C(C)C(OC2CC(C)(OC)C(OS(=O)(=O)Cc3ccccc3)C(C)O2)C(C)C(OC2OC(C)CC(N(C)C)C2O)C2(C)CC(C)=C(O2)C1C (centres unmarked) [Compound 780, 4″-O-benzylsulfonyl-12,13-epoxy-8,9-anhydro-pseudoerythromycin A. 6,9-hemiketal]
Inhibition activity (inhibition ring mm) A. niger ATCC 6275 GYF ([1]; 10 μg/8 mm disk): 11 mm
Transparency of the inhibition ring A. niger ATCC 6275 GYF ([1]; 10 μg/8 mm disk): E (Growth of test organism was inhibited 35% or less.)
Inhibition activity (inhibition ring mm) A. niger ATCC 6275 GYM ([1]; 10 μg/8 mm disk): 14 mm
Transparency of the inhibition ring A. niger ATCC 6275 GYM ([1]; 10 μg/8 mm disk): E (Growth of test organism was inhibited 35% or less.)
Inhibition activity (inhibition ring mm) A. niger ATCC 6275 GY ([1]; 50 μg/8 mm disk): 12 mm
Transparency of the inhibition ring A. niger ATCC 6275 GY ([1]; 50 μg/8 mm disk): E (Growth of test organism was inhibited 35% or less.)
Inhibition activity (inhibition ring mm) A. niger ATCC 6275 GYF ([1]; 50 μg/8 mm disk): 12 mm
Transparency of the inhibition ring A. niger ATCC 6275 GYF ([1]; 50 μg/8 mm disk): E (Growth of test organism was inhibited 35% or less.)
Inhibition activity (inhibition ring mm) A. niger ATCC 6275 GYM ([1]; 50 μg/8 mm disk): 14 mm
Transparency of the inhibition ring A. niger ATCC 6275 GYM ([1]; 50 μg/8 mm disk): E (Growth of test organism was inhibited 35% or less.)
Inhibition activity (inhibition ring mm) C. albicans ATCC 64550 GYF ([2]; 50 μg/8 mm disk): 14 mm
Transparency of the inhibition ring C. albicans ATCC 64550 GYF ([2]; 50 μg/8 mm disk): C (Growth of test organism was inhibited 55% or more and 75% or less.)
Inhibition activity (inhibition ring mm) C. albicans ATCC 64550 GYM ([2]; 50 μg/8 mm disk): 12 mm
Transparency of the inhibition ring C. albicans ATCC 64550 GYM ([2]; 50 μg/8 mm disk): C (Growth of test organism was inhibited 55% or more and 75% or less.)

CCC1OC1(C)C1OC(=O)C(C)C(OC2CC(C)(OC)C(OS(=O)(=O)c3ccccc3)C(C)O2)C(C)C(OC2OC(C)CC(N(C)C)C2OC(C)=O)C2(C)CC(C)=C(O2)C1C (centres unmarked) [Compound 774, 2′-O-acetyl-4″-O-benzenesulfonyl-12,13-epoxy-8,9-Anhydro-pseudoerythromycin A 6,9-hemiketal]
Inhibition activity (inhibition ring mm) A. niger ATCC 6275 GYF ([1]; 10 μg/8 mm disk): 14 mm
Transparency of the inhibition ring A. niger ATCC 6275 GYF ([1]; 10 μg/8 mm disk): E (Growth of test organism was inhibited 35% or less.)
Inhibition activity (inhibition ring mm) A. niger ATCC 6275 GYM ([1]; 10 μg/8 mm disk): 13 mm
Transparency of the inhibition ring A. niger ATCC 6275 GYM ([1]; 10 μg/8 mm disk): E (Growth of test organism was inhibited 35% or less.)
Inhibition activity (inhibition ring mm) A. niger ATCC 6275 GYF ([1]; 50 μg/8 mm disk): 17 mm
Transparency of the inhibition ring A. niger ATCC 6275 GYF ([1]; 50 μg/8 mm disk): E (Growth of test organism was inhibited 35% or less.)
Inhibition activity (inhibition ring mm) A. niger ATCC 6275 GYM ([1]; 50 μg/8 mm disk): 18 mm
Transparency of the inhibition ring A. niger ATCC 6275 GYM ([1]; 50 μg/8 mm disk): D (Growth of test organism was inhibited 35% or more and 55% or less.)
Inhibition activity (inhibition ring mm) C. albicans ATCC 64550 GYF ([2]; 10 μg/8 mm disk): 13 mm
Transparency of the inhibition ring C. albicans ATCC 64550 GYF ([2]; 10 μg/8 mm disk): A (Growth of test organism was inhibited 95% or more.)
Inhibition activity (inhibition ring mm) C. albicans ATCC 64550 GYM ([2]; 10 μg/8 mm disk): 14 mm
Transparency of the inhibition ring C. albicans ATCC 64550 GYM ([2]; 10 μg/8 mm disk): A (Growth of test organism was inhibited 95% or more.)
Inhibition activity (inhibition ring mm) C. albicans ATCC 64550 GYF ([2]; 50 μg/8 mm disk): 17 mm
Transparency of the inhibition ring C. albicans ATCC 64550 GYF ([2]; 50 μg/8 mm disk): A (Growth of test organism was inhibited 95% or more.)
Inhibition activity (inhibition ring mm) C. albicans ATCC 64550 GYM ([2]; 50 μg/8 mm disk): 17 mm
Transparency of the inhibition ring C. albicans ATCC 64550 GYM ([2]; 50 μg/8 mm disk): A (Growth of test organism was inhibited 95% or more.)

CCC1OC(=O)C(C)C(OC2CC(C)(OC)C(O)C(C)O2)C(C)C(OC2OC(C)CC(N(C)C)C2O)C(C)(O)CC(C)C(=NOCC=CCN2CCN(CC=CCON=C3C(C)CC(C)(O)C(OC4OC(C)CC(N(C)C)C4O)C(C)C(OC4CC(C)(OC)C(O)C(C)O4)C(C)C(=O)OC(CC)C(C)(O)C(O)C3C)CC2)C(C)C(O)C1(C)O (centres unmarked) [Compound 760, 9(E)-4-piperazine-{N-4-(9(E)-oxime-erythromycin A-2(E)butenyl)}-2-butenyloxime-erythromycin A]
Inhibition activity (inhibition ring mm) A. niger ATCC 6275 GYF ([1]; 10 μg/8 mm disk): 15 mm
Transparency of the inhibition ring A. niger ATCC 6275 GYF ([1]; 10 μg/8 mm disk): E (Growth of test organism was inhibited 35% or less.)
Inhibition activity (inhibition ring mm) A. niger ATCC 6275 GYF ([1]; 50 μg/8 mm disk): 16 mm
Transparency of the inhibition ring A. niger ATCC 6275 GYF ([1]; 50 μg/8 mm disk): E (Growth of test organism was inhibited 35% or less.)
Inhibition activity (inhibition ring mm) C. albicans ATCC 64548 GYM ([3]; 10 μg/8 mm disk): 10 mm
Transparency of the inhibition ring C. albicans ATCC 64548 GYM ([3]; 10 μg/8 mm disk): E (Growth of test organism was inhibited 35% or less.)
Inhibition activity (inhibition ring mm) C. albicans ATCC 64548 GYM ([3]; 50 μg/8 mm disk): 14 mm
Transparency of the inhibition ring C. albicans ATCC 64548 GYM ([3]; 50 μg/8 mm disk): D (Growth of test organism was inhibited 35% or more and 55% or less.)

CCC1OC(=O)C(C)C(OC2CC(C)(OC)C(O)C(C)O2)C(C)C(OC2OC(C)CC(N(C)CC=CCN(C)C3CC(C)OC(OC4C(C)C(OC5CC(C)(OC)C(O)C(C)O5)C(C)C(=O)OC(CC)C(C)(O)C(O)C(C)C(=O)C(C)CC4(C)O)C3O)C2O)C(C)(O)CC(C)C(=O)C(C)C(O)C1(C)O (centres unmarked) [Compound 757, 3′-de-N-methyl-3′-N-{4-amino-(3′-de-N-methyl-erythromycin A)}-2(E) -butenyl-erythromycin A]
Inhibition activity (inhibition ring mm) A. niger ATCC 6275 GY ([1]; 50 μg/8 mm disk): 10 mm
Transparency of the inhibition ring A. niger ATCC 6275 GY ([1]; 50 μg/8 mm disk): E (Growth of test organism was inhibited 35% or less.)
Inhibition activity (inhibition ring mm) C. albicans ATCC 64548 GYF [3, 4]: 17 mm
Transparency of the inhibition ring C. albicans ATCC 64548 GYF [3, 4]: E (Growth of test organism was inhibited 35% or less.)
Inhibition activity (inhibition ring mm) C. albicans ATCC 64548 GYM ([3]; 100 μg/8 mm disk): 18 mm
Transparency of the inhibition ring C. albicans ATCC 64548 GYM ([3]; 100 μg/8 mm disk): D (Growth of test organism was inhibited 35% or more and 55% or less.)
